Experimental data published in patent EP0387661A2, “New 3'-(4-morpholinyl)- and 3'-(2-methoxy-4-morpholinyl)-anthracycline derivatives” (priority 1989, dated 1990).
In brackets after ≈: the same amount, converted by molar mass.

Columns and labels:
[1] = system: LoVo (human colon adenocarcinoma); assay: in vitro cytotoxicity (colony growth inhibition) against LoVo cells; type: cell-based; conditions: concentration inhibiting by 50% colony growth, tested as hydrochlorides
Protocol: (§1) All compounds were tested as their hydrochlorides.

in vivo [2] = conditions: mouse, in vivo, iv
Protocol: (§2) The biological activity of the compounds according to the invention was tested in vitro against LoVo (human colon adenocarcinoma) and LoVo/DX cells in comparison with doxorubicin. The compounds of the invention were also tested in vivo against P388 and P388/DX murine leukemia in comparison with doxorubicin. All compounds were tested as their hydrochlorides.

P388 = assay: in vivo; conditions: for %T/C (Median survival time of treated mice/median survival time of controls x 100): P388 (iv, iv+1), at optimal dose
Protocol: as §2

in vivo [3] = conditions: mouse, in vivo, iv; remark: listed apart in the source
Protocol: as §2

P388/DX Johnson = assay: in vivo; conditions: for %T/C (Median survival time of treated mice/median survival time of controls x 100): P388/DX Johnson (iv, iv+1), at optimal dose
Protocol: as §2

LoVo/DX cells = assay: in vitro cytotoxicity (colony growth inhibition) against LoVo/DX cells; type: cell-based, human; conditions: for R.I. = Resistance Index = (IC50 LoVo/DX)/(IC50 LoVo): ratio of IC50 LoVo/DX to IC50 LoVo; for Cytotoxicity after 4h of treatment (IC50) LoVo/DX: concentration inhibiting by 50% colony growth, tested as hydrochlorides
Protocol: as §1

| Compound | IC50 ([1]; Homo sapiens, LoVo, 4h of treatment, read-out: Cytotoxicity after 4h of treatment (IC50) LoVo) | MTD (in vivo [2]) | %T/C (Median survival time of treated mice/median survival time of controls x 100) (P388) | MTD (in vivo [3]) | %T/C (Median survival time of treated mice/median survival time of controls x 100) (P388/DX Johnson) | R.I. = Resistance Index = (IC50 LoVo/DX)/(IC50 LoVo) (LoVo/DX cells) | Cytotoxicity after 4h of treatment (IC50) LoVo [1] | Cytotoxicity after 4h of treatment (IC50) LoVo/DX (LoVo/DX cells) | O.D. (Optimal dose: maximum tolerated dose (LD10)) (P388; P388 (iv, iv+1): tumor implanted intravenously, treatment begins one day after implantation) | O.D. (Optimal dose: maximum tolerated dose (LD10)) (P388/DX Johnson; P388/DX Johnson (iv, iv+1): tumor implanted intravenously, treatment begins one day after implantation) |
| --- | --- | --- | --- | --- | --- | --- | --- | --- | --- | --- |
| COc1cccc2c1C(=O)c1c(O)c3c(c(O)c1C2=O)C[C@@](O)(C(=O)CO)C[C@@H]3O[C@H]1C[C@H](N)[C@H](O)[C@H](C)O1 [Doxorubicin, reference compound] | 0.06 µg/mL (≈ 0.11 µM) | 13 mg/kg | 250% | 13 mg/kg | 100% | 36 | – | – | – | – |
| C[C@@H]1O[C@@H](O[C@H]2C[C@](O)(C(=O)CO)Cc3c2cc2c(c3O)C(=O)c3cccc(O)c3C2=O)C[C@H](N2CCOCC2)[C@@H]1O [Ia, 4-demethyl-6-deoxy-3′-deamino-3′-(4-morpholinyl) doxorubicin] | – | – | 222% | – | 183% | 4.7 | 35.5 ng/mL | 165.4 ng/mL | – | – |
| CC(=O)[C@]1(O)Cc2c(O)c3c(c(O)c2[C@@H](O[C@H]2C[C@H](N4CCOCC4)[C@H](O)[C@H](C)O2)C1)C(=O)c1c(N)cccc1C3=O [Ib, 4-demethoxy-4-amino-3′-deamino-3′-(4-morpholinyl)-daunorubicin] | – | – | 156% | – | 167% | 2.1 | 13.7 ng/mL | 28.5 ng/mL | – | – |
| CC(=O)[C@]1(O)Cc2c(O)c3c(c(O)c2[C@@H](O[C@H]2C[C@H](N4CCOCC4)[C@@H](O)[C@H](C)O2)C1)C(=O)c1c(N)cccc1C3=O [Ic, 4-demethoxy-4-amino-3′-deamino-3′-(4-morpholinyl)-4′-epi-daunorubicin] | – | – | – | 20 mg/kg | 195% | 1.3 | 36 ng/mL | 48.5 ng/mL | – | – |
| CC(=O)[C@]1(O)Cc2c(O)c3c(c(O)c2[C@@H](O[C@H]2C[C@H](N4CCOCC4)[C@@H](O)[C@H](C)O2)C1)C(=O)c1c(F)cccc1C3=O [Ie, 4-demethoxy-4-fluoro-3′-deamino-3′-(4-morpholinyl)-4′-epi-daunorubicin] | – | 6.3 mg/kg | 411% | 6.3 mg/kg | 244% | 3.6 | 47 ng/mL | 168 ng/mL | – | – |
| COC1CN(C2CC(OC3CC(O)(C(C)=O)Cc4c(O)c5c(c(O)c43)C(=O)c3ccccc3C5=O)OC(C)C2O)CCO1 (centres unmarked) [Il, 4-demethoxy-3′-deamino-3′-(2-methoxy-4-morpholinyl)-daunorubicin] | – | – | 133% | – | 161% | 11.5 | 0.2 ng/mL | 2.3 ng/mL | 0.14 mg/kg | 0.36 mg/kg |
